Measured values as given in US20060270871A1, “P[…] I OF […] PROCESSES FOR ITS PREPARATION” (priority 2005, published 2006).
Where two headings read alike, the source gives them in different places.

Assays:
[1] = relative to (S)-(+)-pregabalin, type of activity not specified, cited from earlier work
[2] = hygroscopicity of anhydrous pregabalin; format: physicochemical; details: moisture content less than about 0.3% w/w
[3] = accelerated stability testing; details: anhydrous pregabalin, moisture content less than about 0.3% w/w

Compound | times less active when compared with the (S)-(+)-enantiomer [1] | times less active when compared with the (S)-(+)-enantiomer ([1]; listed as (R)-(−)-enantiomer) [times] | hygroscopicity [2] | stability during the accelerated stability testing [3]
CC(C)C[C@@H](CN)CC(=O)O (single isomer, unassigned) [(R)-(−)-enantiomer of pregabalin] | about 40 times | 40 |  | 
CC(C)CC(CN)CC(=O)O (stereo in doubt) [anhydrous pregabalin, (S)-(+)-3-aminomethyl-5-methyl-1-hexanoic acid] |  |  | non-hygroscopic | stable
